From publication doi:10.1101/2025.07.03.662948v1 (biorxiv, 2025)

T1: MtbCBS (Mycobacterium tuberculosis cystathionine β-synthase) (Mycobacterium tuberculosis, UniProt P9WP51)
T1 sequence (P9WP51 1-464): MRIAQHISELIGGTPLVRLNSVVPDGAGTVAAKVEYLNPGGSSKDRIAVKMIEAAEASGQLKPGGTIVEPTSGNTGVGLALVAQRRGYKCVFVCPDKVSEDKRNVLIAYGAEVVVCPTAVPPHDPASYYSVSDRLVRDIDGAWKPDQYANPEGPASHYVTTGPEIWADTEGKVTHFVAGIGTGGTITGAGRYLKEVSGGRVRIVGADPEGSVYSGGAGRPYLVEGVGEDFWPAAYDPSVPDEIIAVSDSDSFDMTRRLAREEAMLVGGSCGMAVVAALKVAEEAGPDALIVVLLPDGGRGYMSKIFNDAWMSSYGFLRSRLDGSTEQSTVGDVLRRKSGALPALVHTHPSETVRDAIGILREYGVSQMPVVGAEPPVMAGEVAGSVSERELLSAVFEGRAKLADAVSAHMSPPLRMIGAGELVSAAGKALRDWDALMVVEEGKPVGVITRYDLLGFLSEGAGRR


Key:
[1] = molecular target: T1, MtbCBS (Mycobacterium tuberculosis cystathionine β-synthase); experiment: fluorescence of PLP aldimine; assay type: biochemical
purified protein = substrate: N[C@@H](CS)C(=O)O; experiment: purified protein; details: pH 7.5; 25.0 °C

Row | Molecule | IC50 [1] [µM] | Km (purified protein) [mM]
1 | NOCC(=O)O [AOAA] | ~100 | 
2 | MtbCBS (Mycobacterium tuberculosis cystathionine β-synthase) (Mycobacterium tuberculosis H37Rv) (protein) MRIAQHISELIGGTPLVRLNSVVPDGAGTVAAKVEYLNPGGSSKDRIAVKMIEAAEASGQLKPGGTIVEPTSGNTGVGLALVAQRRGYKCVFVCPDKVSEDKRNVLIAYGAEVVVCPTAVPPHDPASYYSVSDRLVRDIDGAWKPDQYANPEGPASHYVTTGPEIWADTEGKVTHFVAGIGTGGTITGAGRYLKEVSGGRVRIVGADPEGSVYSGGAGRPYLVEGVGEDFWPAAYDPSVPDEIIAVSDSDSFDMTRRLAREEAMLVGGSCGMAVVAALKVAEEAGPDALIVVLLPDGGRGYMSKIFNDAWMSSYGFLRSRLDGSTEQSTVGDVLRRKSGALPALVHTHPSETVRDAIGILREYGVSQMPVVGAEPPVMAGEVAGSVSERELLSAVFEGRAKLADAVSAHMSPPLRMIGAGELVSAAGKALRDWDALMVVEEGKPVGVITRYDLLGFLSEGAGRR |  | 15.47
